The data set is described as follows: Lipophilicity, log P of the compound. In kind it is physicochemical. As to conditions: octanol/water.

The logP is the decadic logarithm of the partition coefficient of the neutral form, usually between octanol and water.

As to `CC(C)Oc1cc(-n2nc(C(C)(C)C)oc2=O)c(Cl)cc1Cl` [OXADIAZON], the logP came to 4.78.
Consider `CC(Cl)/C=C/C(=O)N(Cc1ccc(Cl)cc1)CC(C)C` (configuration not stated), for which the logP (read-out: logP) is 4.68.

These data come from ChEMBL document CHEMBL3046150, “Quantitative Structure-Activity Relationships of Herbicidal N-Alkyl-N-(4-substituted benzyl)-4-chloro-2-pentenamides against Echinochloa oryzicola” (J Pestic Sci, 1999).
